Assay results: paper PMC4585840 (Scientific Reports, 2015)

Assays:
RCasp6 [1] = target: T1, RCasp6 (Homo sapiens, UniProt P55212); test: in vitro fluorogenic Casp6 activity assay (Ac-VEID-AFC); type: biochemical; conditions: 10 μM DTT; Fig. 1c
T1 construct: The zymogen is cleaved at three distinct sites to remove the prodomain and linker regions in order to obtain an active enzyme; His tag (C); made in house; host or cells: E. coli BL21 (DE3)pLysS
T1 sequence (P55212 24-179 limits assumed): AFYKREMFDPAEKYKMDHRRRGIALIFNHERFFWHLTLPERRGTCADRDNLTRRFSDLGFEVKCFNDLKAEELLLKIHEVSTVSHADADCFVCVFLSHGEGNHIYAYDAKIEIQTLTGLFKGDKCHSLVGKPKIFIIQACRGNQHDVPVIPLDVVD
T1 sequence (P55212 194-293 limits assumed): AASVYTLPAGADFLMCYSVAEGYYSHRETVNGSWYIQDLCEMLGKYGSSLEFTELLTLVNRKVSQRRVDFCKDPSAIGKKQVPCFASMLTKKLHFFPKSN

RCasp6 [2] = target: T1, RCasp6; test: in vitro tubulin cleavage assay with RCasp6; type: biochemical; conditions: 20 nM RCasp6, 10 μM DTT, 10 hours, western blot densitometry; read-out: IC50, cleavage of tubulin by RCasp6 (Tub∆Casp6 relative to total tubulin)
Method: Phenothiazines were mixed with 20 nM RCasp6 or RCasp3, 10 μM DTT, and 7.5 nM BSA in SB and 36 μg HCT116 protein extracts added before incubation at 37 °C for 10 hours, western blotting, and densitometry for tubulin-cleaved by Casp6 (Tub∆Casp6) and total tubulin as described in the western blot section. The IC50 was determined by a non-linear regression fit for log inhibitor vs caspase activity with a Hill slope of −1 using GraphPad Prism 5.0.
(§1) The 10630 (1:10,000) and GN60622 (1:10,000) neoepitope antibodies against the p20 subunit of active Casp6[16] and Tub∆Casp6[23], respectively, were generated in our laboratory. The β-actin clone AC-15 (1:5000, Sigma-Aldrich), Casp6 p10 clone B93-4 (1:250, BD Canada, Mississauga, ON, CA), Casp3, and full-length α-tubulin (1:1000, Cell Signaling Technology Inc., Danvers, MA, USA) antibodies were diluted in 5% non-fat dry milk in Tris-buffered saline containing 0.1% Tween-20 (Sigma-Aldrich). […] Secondary anti-mouse conjugated to alkaline phosphatase (Jackson Immunoresearch Laboratories Inc., West Grove, PA) was developed with nitro-blue tetrazolium (ThermoSci) and 5-bromo-4-chloro-3′-indolyphosphate (ThermoSci).

RCasp6 [3] = target: T1, RCasp6; test: inhibitor kinetic studies (Michaelis-Menten / Lineweaver-Burk) on RCasp6; type: biochemical; conditions: for Ki: competitive inhibition model, nonlinear regression, Ac-VEID-AFC substrate, 10 nM RCasp6
HCT116 cells = test: cell viability (microscopy and MTT) in HCT116 cells; type: cell-based, human; conditions: 2 hours; for concentration at which cells retained morphology and confluence comparable to PBS-treated controls: HCT116, phase contrast microscopy
Method: (§2) HCT116 cells, plated at a density of 1 × 10^5 cells/well and human neurons, plated at a density of 6 × 10^6 cells/well on poly-L-lysine were treated with PBS or phenothiazines for 2 hours. The media was replaced before acquiring images with the Nikon Eclipse Ti microscope and the NIS-Elements (Version 3.10) software. MTT assays: Cells were plated in 96-well plates at 1 × 10^4 or 1 × 10^5 cells per well for 24 hours before treatments with phenothiazines or PBS. After 2 hours, fresh media containing […] MTT (3-(4,5-dimethylthiazol-2-yl)-2,5-diphenyltetrazolium bromide) (Sigma-Aldrich) was added and the cells were incubated for 4 hours at 37 °C in 5% CO2. The media was removed, formazan crystals were dissolved in DMSO, and the absorbance was measured at 560 nm and 670 nm using the BioTek Synergy H4 plate reader.

human primary neurons = test: cell viability (microscopy) in human primary neurons; type: cell-based; conditions: phase contrast microscopy, 2 hours
Method: as §2

[4] = target: T2, catalytic Cys163 of Casp6 (Homo sapiens, UniProt P55212); test: LC/MS/MS analysis of Casp6 Cys163 oxidation; conditions: RCasp6 treated with 2 mM compound, 45 min, 37 °C
T2 construct: The zymogen is cleaved at three distinct sites to remove the prodomain and linker regions in order to obtain an active enzyme; His tag (C); made in house; host or cells: E. coli BL21 (DE3)pLysS
T2 sequence (P55212 24-179 limits assumed): T1 sequence (P55212 24-179 limits assumed)
T2 sequence (P55212 194-293 limits assumed): T1 sequence (P55212 194-293 limits assumed)

Casp6 [5] = target: T3, Casp6 (Homo sapiens, UniProt P55212); test: Casp6 activity in serum-deprived human primary neuron cultures; type: cell-based; set-up: endogenous in cells; host or cells: human primary neurons from fetal brain cortex; conditions: serum-deprived neurons, 2 hrs, 100 μM methylene blue, 50 μM azure A, 10 μM azure B
T3 sequence (P55212 24-179 limits assumed): T1 sequence (P55212 24-179 limits assumed)
T3 sequence (P55212 194-293 limits assumed): T1 sequence (P55212 194-293 limits assumed)

Casp6 [6] = target: T3, Casp6; test: Casp6 activity in Casp6p20p10-transfected HCT116 cells; type: cell-based; set-up: for active Casp6p20 subunit (p20), full length Casp6 lacking its pro-domain; Casp6p20p10 (p20p10); expressed in transfected cells; host or cells: HCT116 human colon carcinoma cells; conditions: transfected HCT116, 2 hrs; 100 μM and 1 mM methylene blue, 50 μM azure A, 10 μM and 100 μM azure B
Method: (§3) Activity assays for RCasp1 (Biovision, Millpitas, CA, USA) and RCasp3 (Enzo Lifesciences) used Z-Tyr-Val-Ala-Asp-7-Amino-4-trifluoromethylcoumarin (z-YVAD-AFC: Enzo LifeSciences,), and Ac-Asp-Glu-Val-Asp-7-Amino-4-trifluoromethylcouramin (Ac-DEVD-AFC: Enzo LifeSciences), respectively. To confirm that these substrates report caspase activity and not proteasomal caspase-like enzyme activity, 1 μM pan-caspase inhibitor, Q-VD-OPh (Sigma-Aldrich) or 0.1 μM proteasome inhibitor, bortezomib (Calbiochem, MA, USA) were tested on 20 nM RCasp3 or 40–60 μg of mouse liver protein extracts.
Human colon carcinoma (HCT116) cells, cultured as recommended (ATCC: Manassas, VA, USA), were transfected with 1 μg pCep4βCasp6p20p10 and 8 μg polyethyleneimine (Polysciences Inc., Warrington, PA, USA), and grown 24 hrs before treatment with PBS and phenothiazines for 2 hours. Human primary neurons were cultured from fetal brain cortical areas obtained under ethical guidelines and approved by the McGill University’s institutional review board as previously described. Human primary neurons plated in poly-L-lysine -coated 6-well plates at a density of 3 × 10^6 cells/mL were serum-deprived for 2 hours in the presence of phenothiazines or an equivalent volume of PBS. Proteins were harvested in cell lysis buffer (CLB; 50mM HEPES, 0.1% CHAPS, 0.1mM EDTA).
as §1

RCasp1 = target: T4, RCasp1 (Homo sapiens, UniProt P29466); test: in vitro fluorogenic Casp1 activity assay (z-YVAD-AFC); type: biochemical; conditions: Fig. 1g
T4 construct: purchased Biovision
T4 sequence (P29466 120-404): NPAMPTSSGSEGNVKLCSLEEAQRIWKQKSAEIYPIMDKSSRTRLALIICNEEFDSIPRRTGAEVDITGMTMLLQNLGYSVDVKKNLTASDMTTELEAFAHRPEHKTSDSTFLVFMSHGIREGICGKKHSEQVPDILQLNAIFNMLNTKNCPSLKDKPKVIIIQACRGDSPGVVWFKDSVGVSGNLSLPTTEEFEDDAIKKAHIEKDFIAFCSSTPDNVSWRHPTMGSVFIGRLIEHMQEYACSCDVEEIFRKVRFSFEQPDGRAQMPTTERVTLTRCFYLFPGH
Method: as §3

RCasp3 = target: T5, RCasp3 (Homo sapiens, UniProt P42574); test: in vitro tubulin cleavage assay with RCasp3; type: biochemical; conditions: 20 nM RCasp3, 10 μM DTT, 10 hours, western blot densitometry; read-out: IC50 on RCasp3-cleaved tubulin
T5 construct: Active Casp6 and Casp3 represented >99% of the purified enzyme; purchased Enzo Lifesciences
T5 sequence (P42574 29-175 limits assumed): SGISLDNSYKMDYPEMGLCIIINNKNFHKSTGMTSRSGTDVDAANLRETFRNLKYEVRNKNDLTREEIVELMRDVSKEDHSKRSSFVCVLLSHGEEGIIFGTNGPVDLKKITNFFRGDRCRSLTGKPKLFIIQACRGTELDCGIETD
T5 sequence (P42574 176-277 limits assumed): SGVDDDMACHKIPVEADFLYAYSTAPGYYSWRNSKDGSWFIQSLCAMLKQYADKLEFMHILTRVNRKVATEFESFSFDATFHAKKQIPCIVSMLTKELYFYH

Row | Structure (SMILES) | concentration at which reduction in Casp6 activity was observed (RCasp6 [1]) [pM] | inhibition of Casp6 activity (RCasp6 [1]) | IC50 (RCasp6 [2]) [µM] | mode of inhibition (RCasp6 [3]; Lineweaver Burk plot, Km increasing, Vmax the same) | Ki (RCasp6 [3]) [µM] | concentration up to which well tolerated (HCT116 cells; HCT116, MTT assay) | concentration at which cells retained morphology and confluence comparable to PBS-treated controls (HCT116 cells) [μM] | concentration above which cell body size and axonal fragmentation increased (human primary neurons) | sequenced peptides containing oxidized Cys163 [4] [%] | VEIDase activity (Casp6 [5]) | Tub∆Casp6/Tub levels (Casp6 [5]; vs PBS-treated serum-deprived neurons) | Casp6 activity on the Ac-VEID-AFC peptide substrate (Casp6 [6]) | inhibition of RCasp1 in the fluorogenic assay (RCasp1) | IC50 (RCasp3) [µM] | concentration that decreased MTT absorbance to almost nothing (toxicity) (HCT116 cells; HCT116, MTT assay) [µM] | concentration up to which MTT absorbance was similar to PBS-treated cells (HCT116 cells; HCT116, MTT assay)
1 | CNc1ccc2nc3ccc(N(C)C)cc3[s+]c2c1 [azure B, dimethyl-[7-(methylamino)phenothiazin-3-ylidene]azanium;chloride] | 100 | inhibited Casp6 activity in a dose dependent manner | 34.4 | competitive | 7.89 | up to 100 μM | 100 | > 10 µM | 7.7 | significantly inhibited | significantly decreased | significantly inhibited | – | – | – | –
2 | CN(C)c1ccc2nc3ccc(=[N+](C)C)cc-3sc2c1 [methylene blue, [7-(dimethylamino)phenothiazin-3-ylidene]-dimethylazanium;chloride] | 100 | – | 10.6 | – | 50.5 | – | 100 | above 100 μM | – | – | – | significantly inhibited | dose dependent inhibition | 14.2 | 10000 | up to 1 mM
